Data on 13 compounds can be found in patent publication US5442077A, “Benzo[B]Furancarboxamide derivatives, process for the preparation of same and use thereof for improving hypermotility” (Sanwa Kagaku Kenkyusho Co., Ltd., priority 1993, dated 1995).

Structures are written as SMILES. Where a name gives a salt, the structure may show the parent alone.

By EC50 is commonly meant the concentration giving half of the maximal effect. As usually defined, the ED50 is the dose that gives a 50% effect, or the effect in half of the subjects. A low value points to greater potency.

In one data set the target is T1, 5-HT4 receptor (Rattus norvegicus, UniProt Q62758).
T1 construct: muscular sample of mucous membrane in esophgus exentrated from a rat; from tissue; host or cells: rat oesophagus, muscularis mucosae
T1 sequence (Q62758 whole entry): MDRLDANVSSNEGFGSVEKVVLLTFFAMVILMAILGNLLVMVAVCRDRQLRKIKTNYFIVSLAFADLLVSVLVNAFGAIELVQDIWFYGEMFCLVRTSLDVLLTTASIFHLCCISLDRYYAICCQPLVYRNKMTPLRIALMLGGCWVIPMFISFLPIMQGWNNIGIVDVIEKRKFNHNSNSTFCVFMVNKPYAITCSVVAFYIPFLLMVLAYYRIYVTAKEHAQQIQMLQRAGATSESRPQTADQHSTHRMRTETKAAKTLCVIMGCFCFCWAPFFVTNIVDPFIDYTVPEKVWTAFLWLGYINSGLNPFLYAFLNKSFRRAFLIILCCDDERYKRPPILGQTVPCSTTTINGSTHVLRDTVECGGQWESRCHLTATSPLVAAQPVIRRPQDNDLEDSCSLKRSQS
Description: Agonisting Action to 5-HT4 Receptor (relaxation of carbachol-treated oesophageal mucous membrane muscle sample). As to conditions: negative logarithm of concentration causing 50% relaxation, rat esophagus. The data set is classed as cell-based.

For the next data set, the system named is digestive tract. As to the kind of experiment: Action on Hypermotility of Digestive Tract (acceleration of gastric emptying, phenol red). As to conditions: Rattus norvegicus, oral, rats fasted for 24 hours, phenol red 30 min after administration. The data set is classed as in vivo. The procedure:
The compounds obtained by Examples 1, 2 and 5 as well as exemplar known compounds (Metocloplamide and Cysapride) were selected as Test Compounds, and an action of the compounds for accelerating gastric emptying was checked in accordance with the method described by Yokochi et al [" (which can be translated as --Bulletin of Pharmacological Society of Japan--)", Vol. 92, page 297 (1988 )].
Namely, the test compound was orally administered in an amount of 0.3, 1.0, 3.0 or 10 mg/kg to rats fasted for 24 hours, and after 30 minutes from the administration, a coloring matter in a constant amount (phenol red, 100 μg) was also orally administered.
Rate of gastric emptying=100-(B/A)×100
A: Dosing amount of coloring matter, and
B: Remaining amount of coloring matter.
Rate of acceleration=(C-D)×100
C: Rate of gastric emptying in Test Group, and
D: Rate of gastric emptying in Control Group given no Test Compound.

The subject of another data set is dopamine D2 receptor. As to the kind of experiment: Anti-Dopamine Action (general symptoms including catalepsy and blepharoptosis). The data set is classed as in vivo, rat. How it is done: The compound was orally administered to rats in amount of 100, 300 or 1000 mg/kg to observe for 2 days general symptoms including catalepsy and blepharoptosis due to antagonistic action of the compound to dopamine D2 receptor.

The mark [1] stands for this setting: oral, rats, observed for 2 days.

`CC1Cc2c(N)c(Cl)cc(C(=O)NCCC34CCCN3CCC4)c2O1` (single isomer, unassigned; (-)) [Example 3, (-)-4-Amino-N-[2-(1-azabicyclo[3.3.0]octan-5-yl)ethyl]-5-chloro-2-methyl-2,3-dihydrobenzo[b]furan-7-carboxamide . 1/2 fumarate] had an EC50 on 5-HT4 receptor of 20 nM. `CC1(C)Cc2c(N)c(Cl)cc(C(=O)NCCC34CCCN3CCC4)c2O1` [Example 5, 4-Amino-N-[2-(1-azabicyclo[3.3.0]octan-5-yl)ethyl]-5-chloro-2,2-dimethyl-2,3-dihydrobenzo[b]furan-7-carboxamide] gave an ED50 in the data set with digestive tract of 1.5 mg/kg. Besides, the EC50 on 5-HT4 receptor was 316 nM. Further, the “Influence on central nervous system, 1000 mg/kg” value (“Influence … 1000 mg/kg” for short) with dopamine D2 receptor (setting [1]) is reported as “-”. In turn, `CC1Cc2c(N)c(Cl)cc(C(=O)NCCC34CCCN3CCC4)c2O1` (single isomer, unassigned; (+)) [Example 4, (+)-4-Amino-N-[2-(1-azabicyclo[3.3.0]octan-5-yl)ethyl]-5-chloro-2-methyl-2,3-dihydrobenzo[b]furan-7-carboxamide . 1/2 fumarate] had an EC50 on 5-HT4 receptor of 50.1 nM. The same measure, in the same setting: with `CC(=O)Nc1c(Cl)cc(C(=O)NCCC23CCCN2CCC3)c2c1CC(C)O2` (centres unmarked) [Example 8, 4-Acetylamino-N-[2-(1-azabicyclo[3.3.0]octan-5-yl)ethyl]-5-chloro-2-methyl-2,3-dihydrobenzo[b]furan-7-carboxamide] the figure was 316 nM; with `CC1Cc2cc(Cl)cc(C(=O)NCCC34CCCN3CCC4)c2O1` (centres unmarked) [Example 9, N-[2-(1-Azabicyclo[3.3.0]octan-5-yl)ethyl]-5-chloro-2-methyl-2,3-dihydrobenzo[b]furan-7-carboxamide], 100 nM. The compound `CC1Oc2c(C(=O)NCCC34CCCN3CCC4)cc(Cl)c(N)c2C1C` (centres unmarked) [Example 6, 4-Amino-N-[2-(1-azabicyclo[3.3.0]octan-5-yl)ethyl]-5-chloro-2,3-dimethyl-2,3-dihydrobenzo[b]furan-7-carboxamide] gave an EC50 at 5-HT4 receptor of 12.6 nM. Consider `COc1cc(N)c(Cl)cc1C(=O)NC1CCN(CCCOc2ccc(F)cc2)CC1OC` (centres unmarked) [Cisapride, reference compound], for which, in the data set with digestive tract, the 50% effect level (ED50) was put at a dose of 6.37 mg/kg. Also, on 5-HT4 receptor, the midpoint of the response, the EC50, lay at 39.8 nM. Further, the “Influence … 1000 mg/kg” value in the data set on dopamine D2 receptor (setting [1]) is on record as “++”. As for `Nc1c(Cl)cc(C(=O)NCCC23CCCN2CCC3)c2c1CCO2` [Example 1, 4-Amino-N-[2-(1-azabicyclo[3.3.0]octan-5-yl)ethyl]-5-chloro-2,3-dihydrobenzo[b]furan-7-carboxamide], in the data set on digestive tract, it took a dose of 2.15 mg/kg to reach the 50% effect level (ED50). For the same compound, the EC50 on 5-HT4 receptor is 316 nM. For the same compound, the “Influence … 1000 mg/kg” value in the data set with dopamine D2 receptor (setting [1]) is on record as “-”. For `CCC1Cc2c(N)c(Cl)cc(C(=O)NCCC34CCCN3CCC4)c2O1` (centres unmarked) [Example 7, 4-Amino-N-[2-(1-azabicyclo[3.3.0]octan-5-yl)ethyl]-5-chloro-2-ethyl-2,3-dihydrobenzo[b]furan-7-carboxamide], the concentration for a half-maximal effect (EC50) at 5-HT4 receptor is 20 nM. In turn, `CCN(CC)CCNC(=O)c1cc(Cl)c(N)cc1OC` [Metoclopramide, 4-amino-5-chloro-N-[(2-diethylamino)ethyl]-2-methoxybenzamide, reference compound] came in with an ED50 with digestive tract of 16.3 mg/kg. The “Influence on central nervous system, 100 mg/kg” value in the data set on dopamine D2 receptor (rat, in vivo, po) is given as “++”. In the data set on digestive tract, `CC1Cc2c(N)c(Cl)cc(C(=O)NCCC34CCCN3CCC4)c2O1` (centres unmarked) [Example 2, 4-Amino-N-[2-(1-azabicyclo[3.3.0]octan-5-yl)ethyl]-5-chloro-2-methyl-2,3-dihydrobenzo[b]furan-7-carboxamide] gave an ED50 of 1.97 mg/kg. In the data set on dopamine D2 receptor (setting [1]), the “Influence on central nervous system, 100 mg/kg” value is listed as “-” and the “Influence … 1000 mg/kg” value was “-”. For the same compound, the “Influence on central nervous system, 300 mg/kg” value in the data set on dopamine D2 receptor (oral, rats, 300 mg/kg, observed for 2 days) is given as “-”. For the compound `CC1Cc2c(N)ccc(C(=O)NCCC34CCCN3CCC4)c2O1` (centres unmarked) [Example 10, 4-Amino-N-[2-(1-azabicyclo[3.3.0]octan-5-yl)ethyl]-2-methyl-2,3-dihydrobenzo[b]furan-7-carboxamide], at 5-HT4 receptor, the response was half-maximal at 1000 nM (EC50). This lies in the single-digit micromolar range. Turning to `CC1Cc2c(N)c(Cl)cc(C(=O)NCCC34CCCN3CCC4)c2O1` (centres unmarked) [2 (*), 4-Amino-N-[2-(1-azabicyclo[3.3.0]octan-5-yl)ethyl]-5-chloro-2-methyl-2,3-dihydrobenzo[b]furan-7-carboxamide], the EC50 on 5-HT4 receptor was 39.8 nM.
